Reference: patent USRE37781E1, “Substituted cyclic carbonyls and derivatives thereof useful as retroviral protease inhibitors” (DuPont Pharmaceuticals Company, priority 1991, dated 2002)
Like-named read-outs stand apart in the source and are kept apart here.

Assays:
[1] = target: single-chain tethered dimer of HIV protease (Human immunodeficiency virus 1, UniProt P04585); experiment: biochemical; type: biochemical; set-up: fused on or other part: A second copy of the same protease unit is joined to the first by a short peptide tether, giving one polypeptide
HIV-1 (RF) in MT-2 cells = experiment: microbe, parasite or virus in culture; type: cell-based
In short: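 HIV-1 laboratory strains (RF, MN, IIIB) grown in H9 cells in RPMI 1640 with 5% FCS; infections in MT-2 cells. Viral RNA quantified by hybridization with biotinylated gag/pol capture probes on streptavidin plates and alkaline phosphatase-conjugated reporter probes; BH10 gag-pol in vitro transcripts serve as RNA standards.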

[2] = Human immunodeficiency virus 1, MT2, Table 2i, read-out: IC90

Row | Structure (SMILES) | Ki ([1]; Table 2i, read-out: HPLC Ki) [nM] | IC90 (HIV-1 (RF) in MT-2 cells; Table 2i) | other results
1 | O=C(NCCN1CCOCC1)c1cccc(CN2C(=O)N(CC3CC3)C(Cc3ccccc3)C(O)C(O)C2Cc2ccccc2)c1 (centres unmarked) [15YB] | – | – | Ki ([1]; Table 2d, HIV protease inhibition, HPLC method, read-out: HPLC K1): < 10 nM; IC90 (HIV-1 (RF) in MT-2 cells; Table 2d, HIV RNA assay): +++ (+++=<10 μg/mL)
2 | O=C1N(Cc2cccc(CO)c2)C(Cc2ccc(F)c(F)c2)C(O)C(O)C(Cc2ccc(F)c(F)c2)N1Cc1cccc(CO)c1 (centres unmarked) [20AA] | < 10 | +++ (+++=<10 μg/mL) | –
3 | O=C1N(Cc2ccc(CO)cc2)C(Cc2ccc(F)c(F)c2)C(O)C(O)C(Cc2ccc(F)c(F)c2)N1Cc1ccc(CO)cc1 (centres unmarked) [20AB] | < 10 | +++ (+++=<10 μg/mL) | –
4 | NC(=O)c1cccc(CN2C(=O)N(Cc3cccc(C(N)=O)c3)C(Cc3ccc(F)c(F)c3)C(O)C(O)C2Cc2ccc(F)c(F)c2)c1 (centres unmarked) [20AC] | < 10 | +++ (+++=<10 μg/mL) | –
5 | NC(=NO)c1cccc(CN2C(=O)N(Cc3cccc(C(N)=NO)c3)C(Cc3ccc(F)c(F)c3)C(O)C(O)C2Cc2ccc(F)c(F)c2)c1 (centres unmarked) [20AD] | < 10 | +++ (+++=<10 μg/mL) | –
6 | O=C1N(Cc2cccc(-c3cc[nH]n3)c2)C(Cc2ccc(F)cc2)C(O)C(O)C(Cc2ccc(F)cc2)N1CC1CC1 (centres unmarked) [20AE] | < 10 | +++ (+++=<10 μg/mL) | –
7 | COc1cccc(CC2NC(=O)NC(Cc3cccc(OC)c3)C(O)C2O)c1 (centres unmarked) [20AO] | 10 to 1000 | ++ (++=10 to 100 μg/mL) | –
8 | O=C1N(Cc2cccc(O)c2)C(Cc2cccc(O)c2)C(O)C(O)C(Cc2cccc(O)c2)N1Cc1cccc(O)c1 (centres unmarked) [20AQ] | < 10 | +++ (+++=<10 μg/mL) | –
9 | COc1cccc(CC2C(O)C(O)C(Cc3cccc(OC)c3)N(CC3CC3)C(=O)N2CC2CC2)c1 (centres unmarked) [20AS] | < 10 | +++ (+++=<10 μg/mL) | –
10 | COc1cccc(CC2C(O)C(O)C(Cc3cccc(OC)c3)N(Cc3ccc(CO)cc3)C(=O)N2Cc2ccc(CO)cc2)c1 (centres unmarked) [20AT] | < 10 | +++ (+++=<10 μg/mL) | –
11 | COc1cccc(CC2C(O)C(O)C(Cc3cccc(OC)c3)N(Cc3cccc(OC)c3)C(=O)N2Cc2cccc(OC)c2)c1 (centres unmarked) [20AU] | < 10 | +++ (+++=<10 μg/mL) | –
12 | CCCCN1C(=O)N(CCCC)C(Cc2ccccc2[N+](=O)[O-])C(O)C(O)C1Cc1ccc([N+](=O)[O-])cc1 (centres unmarked) [20C] | < 10 | +++ (+++=<10 μg/mL) | –
13 | NC(=O)c1cccc(CN2C(=O)N(Cc3cccc(C(N)=O)c3)C(Cc3ccc(F)cc3)C(O)C(O)C2Cc2ccc(F)cc2)c1 (centres unmarked) [20L] | < 10 | +++ (+++=<10 μg/mL) | –
14 | CC(O)c1ccc(CN2C(=O)N(Cc3ccc(C(C)O)cc3)C(Cc3ccccc3)C(O)C(O)C2Cc2ccccc2)cc1 (centres unmarked) [20M] | < 10 | +++ (+++=<10 μg/mL) | –
15 | CC(=O)c1cccc(CN2C(=O)N(Cc3cccc(C(C)=O)c3)C(Cc3ccc(F)cc3)C(O)C(O)C2Cc2ccc(F)cc2)c1 (centres unmarked) [20N] | < 10 | +++ (+++=<10 μg/mL) | –
16 | N#Cc1cccc(CN2C(=O)N(Cc3cccc(C#N)c3)C(Cc3ccc(F)cc3)C(O)C(O)C2Cc2ccc(F)cc2)c1 (centres unmarked) [20O] | 10 to 1000 | +++ (+++=<10 μg/mL) | –
17 | CCCC(=O)c1cccc(CN2C(=O)N(Cc3cccc(C(=O)CCC)c3)C(Cc3ccc(F)cc3)C(O)C(O)C2Cc2ccc(F)cc2)c1 (centres unmarked) [20P] | < 10 | +++ (+++=<10 μg/mL) | –
18 | O=C1N(Cc2cccc(CO)c2)C(Cc2ccc(F)cc2)C(O)C(O)C(Cc2ccc(F)cc2)N1Cc1cccc(CO)c1 (centres unmarked) [20T] | < 10 | +++ (+++=<10 μg/mL) | –
19 | CC(=NO)c1cccc(CN2C(=O)N(Cc3cccc(C(C)=NO)c3)C(Cc3ccc(F)cc3)C(O)C(O)C2Cc2ccc(F)cc2)c1 (centres unmarked) [20U] | – | – | Ki ([1]; read-out: HPLC Ki, Table 2i): < 10 nM; IC90 (HIV-1 (RF) in MT-2 cells; [2]): < 10 µg/mL
20 | NC(=NO)c1cccc(CN2C(=O)N(Cc3cccc(C(N)=NO)c3)C(Cc3ccccc3)C(O)C(O)C2Cc2ccccc2)c1 (centres unmarked) [20V] | < 10 | +++ (+++=<10 μg/mL) | –
21 | NC(=NO)c1cccc(CN2C(=O)N(Cc3cccc(C(N)=NO)c3)C(Cc3ccc(F)cc3)C(O)C(O)C2Cc2ccc(F)cc2)c1 (centres unmarked) [20X] | – | – | Ki ([1]; read-out: HPLC Ki, Table 2i): < 10 nM; IC90 (HIV-1 (RF) in MT-2 cells; [2]): < 10 µg/mL
22 | COC(=O)c1cccc(CN2C(=O)N(Cc3cccc(C(=O)OC)c3)C(Cc3ccc(F)c(F)c3)C(O)C(O)C2Cc2ccc(F)c(F)c2)c1 (centres unmarked) [20Y] | < 10 | +++ (+++=<10 μg/mL) | –
23 | COC(=O)c1ccc(CN2C(=O)N(Cc3ccc(C(=O)OC)cc3)C(Cc3ccc(F)c(F)c3)C(O)C(O)C2Cc2ccc(F)c(F)c2)cc1 (centres unmarked) [20Z] | 10 to 1000 | +++ (+++=<10 μg/mL) | –
24 | CN(C)CCNC(=O)c1cccc(CN2C(Cc3ccccc3)C(O)C(O)C(Cc3ccccc3)N(Cc3cccc(C(=O)NCCN(C)C)c3)S2(=O)=O)c1 (centres unmarked) [23AA] | – | – | Ki ([1]; Table 2m, read-out: HPLC Ki): 10 to 1000 nM; IC90 (HIV-1 (RF) in MT-2 cells; Table 2m): ++ (++=10 to 100 μg/mL)
25 | O=S1(=O)NC(Cc2ccccc2)C(O)C(O)C(Cc2ccccc2)N1CCCCCO (centres unmarked) [23AE] | – | – | Ki ([1]; Table 2m, read-out: HPLC Ki): 10 to 1000 nM; IC90 (HIV-1 (RF) in MT-2 cells; Table 2m): ++/+ (The ++/+ is used in the cases where an IC90 was determined to be >50 μg/mL)
